Experimental data: PMC8500670, “A selective WDR5 degrader inhibits acute myeloid leukemia in patient-derived mouse models” (Science translational medicine, 2021)
Where two headings read alike, the source gives them in different places.

How the values were obtained:
Test in all cases: biochemical
PRMT1 = PRMT1 (Homo sapiens, UniProt Q99873); design: protein methyltransferase selectivity panel, enzyme activity relative to DMSO controls, single concentration in duplicate; details: Substrate:=Histone H4
Sequence of PRMT1 (Q99873 whole entry): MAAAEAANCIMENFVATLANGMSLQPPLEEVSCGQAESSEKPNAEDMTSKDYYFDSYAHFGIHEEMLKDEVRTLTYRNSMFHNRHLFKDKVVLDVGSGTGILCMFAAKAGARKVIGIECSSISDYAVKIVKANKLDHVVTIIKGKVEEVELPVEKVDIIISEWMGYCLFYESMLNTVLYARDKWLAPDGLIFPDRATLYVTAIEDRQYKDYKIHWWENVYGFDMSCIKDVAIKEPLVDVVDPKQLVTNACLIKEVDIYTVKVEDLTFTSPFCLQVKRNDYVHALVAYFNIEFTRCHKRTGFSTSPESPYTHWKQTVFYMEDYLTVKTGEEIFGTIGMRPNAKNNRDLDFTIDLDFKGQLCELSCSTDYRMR
Description: (§1) We next assessed selectivity of MS67 against 22 protein methyltransferases (table S2) and a broad panel of common drug targets including 45 kinases (table S3) and 44 G protein–coupled receptors (GPCR), ion channels, and transporters (table S4). […] We subsequently determined that MS67 had moderate binding affinity (Ki = 1.0 ± 0.8 μM) to Sigma 2 receptor (fig. S10).

PRMT7 = target: T1, PRMT7 (Homo sapiens, UniProt Q9NVM4); design: protein methyltransferase selectivity panel, enzyme activity relative to DMSO controls, single concentration in duplicate; details: Substrate:=GST-GAR
T1 sequence (Q9NVM4 1-692): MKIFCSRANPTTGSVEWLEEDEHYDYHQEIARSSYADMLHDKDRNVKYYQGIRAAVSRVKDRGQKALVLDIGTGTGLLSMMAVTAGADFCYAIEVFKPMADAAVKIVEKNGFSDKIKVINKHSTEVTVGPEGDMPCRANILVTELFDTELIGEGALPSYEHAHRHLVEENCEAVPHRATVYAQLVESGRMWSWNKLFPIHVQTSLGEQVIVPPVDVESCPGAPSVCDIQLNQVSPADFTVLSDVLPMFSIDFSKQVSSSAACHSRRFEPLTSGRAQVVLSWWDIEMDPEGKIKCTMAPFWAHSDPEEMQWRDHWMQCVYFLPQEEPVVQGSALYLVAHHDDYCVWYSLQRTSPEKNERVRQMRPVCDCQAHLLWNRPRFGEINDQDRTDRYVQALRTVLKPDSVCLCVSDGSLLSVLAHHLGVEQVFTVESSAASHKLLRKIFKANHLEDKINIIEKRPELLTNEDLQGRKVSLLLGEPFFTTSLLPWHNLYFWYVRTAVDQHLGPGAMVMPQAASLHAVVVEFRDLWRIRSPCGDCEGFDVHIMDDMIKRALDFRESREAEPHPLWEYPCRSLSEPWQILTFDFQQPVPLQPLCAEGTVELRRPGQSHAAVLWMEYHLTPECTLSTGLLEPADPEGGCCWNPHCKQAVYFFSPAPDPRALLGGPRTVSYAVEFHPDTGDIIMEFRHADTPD
Description: as §1

NSD3 = target: T2, NSD3 (Homo sapiens, UniProt Q9BZ95); design: protein methyltransferase selectivity panel, enzyme activity relative to DMSO controls, single concentration in duplicate; details: Substrate:=Nucleosomes
T2 sequence (Q9BZ95 1-1437): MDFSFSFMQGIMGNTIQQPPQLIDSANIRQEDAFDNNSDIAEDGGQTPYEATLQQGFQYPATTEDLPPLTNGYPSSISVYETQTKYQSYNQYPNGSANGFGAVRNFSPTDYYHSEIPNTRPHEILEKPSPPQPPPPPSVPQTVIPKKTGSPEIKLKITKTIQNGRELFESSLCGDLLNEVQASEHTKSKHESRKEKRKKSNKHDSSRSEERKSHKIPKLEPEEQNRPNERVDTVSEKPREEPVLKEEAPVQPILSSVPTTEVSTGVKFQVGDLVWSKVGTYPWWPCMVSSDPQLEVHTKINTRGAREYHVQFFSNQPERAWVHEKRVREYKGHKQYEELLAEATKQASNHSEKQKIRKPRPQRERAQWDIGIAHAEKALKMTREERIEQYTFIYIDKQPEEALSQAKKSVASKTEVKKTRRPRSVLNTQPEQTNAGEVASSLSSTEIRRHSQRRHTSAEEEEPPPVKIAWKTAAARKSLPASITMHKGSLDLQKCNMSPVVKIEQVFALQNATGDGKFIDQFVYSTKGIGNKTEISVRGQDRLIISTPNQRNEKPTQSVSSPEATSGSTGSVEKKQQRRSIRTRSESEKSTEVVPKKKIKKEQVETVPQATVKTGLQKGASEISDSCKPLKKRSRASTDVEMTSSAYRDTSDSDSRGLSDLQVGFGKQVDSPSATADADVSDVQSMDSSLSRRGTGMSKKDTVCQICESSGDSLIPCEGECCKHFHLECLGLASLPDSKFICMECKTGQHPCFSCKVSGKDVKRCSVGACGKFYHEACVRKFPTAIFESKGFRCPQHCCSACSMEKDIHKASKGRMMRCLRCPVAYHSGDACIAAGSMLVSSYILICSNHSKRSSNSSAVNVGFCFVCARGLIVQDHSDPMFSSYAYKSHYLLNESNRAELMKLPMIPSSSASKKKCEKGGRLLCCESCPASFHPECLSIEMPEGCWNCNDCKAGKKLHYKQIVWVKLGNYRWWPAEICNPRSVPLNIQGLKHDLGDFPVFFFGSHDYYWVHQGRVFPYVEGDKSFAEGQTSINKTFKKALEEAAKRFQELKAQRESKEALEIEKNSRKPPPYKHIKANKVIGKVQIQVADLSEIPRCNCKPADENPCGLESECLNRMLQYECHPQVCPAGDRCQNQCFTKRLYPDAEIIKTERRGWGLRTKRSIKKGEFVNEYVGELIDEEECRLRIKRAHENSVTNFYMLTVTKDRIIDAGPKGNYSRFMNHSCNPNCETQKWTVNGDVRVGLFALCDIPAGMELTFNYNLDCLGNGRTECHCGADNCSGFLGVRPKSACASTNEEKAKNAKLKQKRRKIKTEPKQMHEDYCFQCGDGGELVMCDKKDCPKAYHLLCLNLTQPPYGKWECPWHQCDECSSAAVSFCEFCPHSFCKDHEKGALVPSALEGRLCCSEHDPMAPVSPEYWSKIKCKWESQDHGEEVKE
Description: as §1

PKA(h) = target: T3, PKA(h) (Homo sapiens, UniProt P17612); design: kinase selectivity panel, activity as per cent of control, single concentration in duplicate; details: read-out: % of control remaining
T3 construct: gene PRKACA
Description: as §1

IR(h) = target: T4, IR(h) (Homo sapiens, UniProt P06213); design: kinase selectivity panel, activity as per cent of control, single concentration in duplicate; details: read-out: % of control remaining
T4 construct: gene INSR
T4 sequence (P06213 whole entry): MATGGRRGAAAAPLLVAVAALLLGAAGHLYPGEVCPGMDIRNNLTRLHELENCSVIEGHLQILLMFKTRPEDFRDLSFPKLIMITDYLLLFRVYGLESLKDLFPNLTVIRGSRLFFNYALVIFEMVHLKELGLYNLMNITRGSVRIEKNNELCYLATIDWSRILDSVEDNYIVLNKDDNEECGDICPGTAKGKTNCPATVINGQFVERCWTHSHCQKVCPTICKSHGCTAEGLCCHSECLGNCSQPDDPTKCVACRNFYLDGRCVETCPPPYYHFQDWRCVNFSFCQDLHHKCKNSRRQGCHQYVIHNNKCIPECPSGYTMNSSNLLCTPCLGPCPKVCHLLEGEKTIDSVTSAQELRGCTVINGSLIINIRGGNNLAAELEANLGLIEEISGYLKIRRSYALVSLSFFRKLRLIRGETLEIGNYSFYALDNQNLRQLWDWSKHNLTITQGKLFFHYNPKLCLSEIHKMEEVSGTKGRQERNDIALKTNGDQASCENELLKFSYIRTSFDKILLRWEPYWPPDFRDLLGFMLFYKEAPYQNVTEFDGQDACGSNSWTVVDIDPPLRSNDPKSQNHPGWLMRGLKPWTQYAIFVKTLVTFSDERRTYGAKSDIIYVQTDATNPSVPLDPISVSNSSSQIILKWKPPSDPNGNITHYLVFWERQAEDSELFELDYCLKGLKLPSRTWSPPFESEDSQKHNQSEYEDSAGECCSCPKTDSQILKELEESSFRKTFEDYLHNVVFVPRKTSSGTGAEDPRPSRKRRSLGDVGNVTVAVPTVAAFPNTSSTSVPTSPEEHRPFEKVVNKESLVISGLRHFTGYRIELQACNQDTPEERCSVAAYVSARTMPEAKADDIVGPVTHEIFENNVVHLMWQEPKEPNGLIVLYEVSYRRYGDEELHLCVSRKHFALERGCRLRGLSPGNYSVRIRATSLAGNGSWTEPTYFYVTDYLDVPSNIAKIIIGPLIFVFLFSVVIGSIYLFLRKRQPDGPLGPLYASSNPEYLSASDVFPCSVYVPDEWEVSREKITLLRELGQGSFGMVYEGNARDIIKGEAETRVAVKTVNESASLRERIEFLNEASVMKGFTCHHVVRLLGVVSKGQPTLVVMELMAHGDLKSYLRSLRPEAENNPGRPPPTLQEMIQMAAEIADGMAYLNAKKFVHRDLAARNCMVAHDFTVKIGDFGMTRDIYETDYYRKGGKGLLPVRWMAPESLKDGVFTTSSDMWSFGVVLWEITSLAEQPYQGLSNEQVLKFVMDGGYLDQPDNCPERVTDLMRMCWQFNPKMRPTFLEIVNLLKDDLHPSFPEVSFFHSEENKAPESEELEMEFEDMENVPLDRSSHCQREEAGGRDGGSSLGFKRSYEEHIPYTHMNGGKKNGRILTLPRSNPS
Description: as §1

Mnk2(h) = target: T5, Mnk2(h) (Homo sapiens, UniProt Q9HBH9); design: kinase selectivity panel, activity as per cent of control, single concentration in duplicate; details: read-out: % of control remaining
T5 construct: gene MKNK2
T5 sequence (Q9HBH9 whole entry): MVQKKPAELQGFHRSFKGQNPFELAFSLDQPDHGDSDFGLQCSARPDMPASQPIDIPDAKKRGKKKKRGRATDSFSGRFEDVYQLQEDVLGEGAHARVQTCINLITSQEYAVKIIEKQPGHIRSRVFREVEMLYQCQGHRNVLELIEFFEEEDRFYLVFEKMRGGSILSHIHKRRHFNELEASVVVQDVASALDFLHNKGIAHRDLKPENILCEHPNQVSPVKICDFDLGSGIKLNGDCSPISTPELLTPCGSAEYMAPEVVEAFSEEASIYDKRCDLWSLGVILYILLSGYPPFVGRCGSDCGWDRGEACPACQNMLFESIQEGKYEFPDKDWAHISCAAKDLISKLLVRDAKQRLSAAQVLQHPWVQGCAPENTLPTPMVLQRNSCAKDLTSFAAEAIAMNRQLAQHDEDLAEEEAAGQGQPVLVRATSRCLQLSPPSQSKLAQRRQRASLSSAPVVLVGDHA
Description: as §1

[1] = read-out: Enzyme % Activity (relative to DMSO controls) / MS67 / 10 / Data 1:
[2] = read-out: Enzyme % Activity (relative to DMSO controls) / MS67 / 10 / Data 2:

Molecule `Cc1ncsc1-c1ccc([C@H](C)NC(=O)[C@@H]2C[C@@H](O)CN2C(=O)[C@@H](NC(=O)CNC(=O)c2ccc(F)c(-c3ccc(N4C[C@@H](C)N(C)[C@@H](C)C4)c(NC(=O)c4c[nH]c(=O)cc4C(F)(F)F)c3)c2)C(C)(C)C)cc1` [MS67] has a remaining activity at 10 µM (PRMT1; [1]) of 98.9%, a remaining activity at 10 µM (PRMT1; [2]) of 96% and a remaining activity at 10 µM (PRMT7; [1]) of 100%. It also gave a remaining activity at 10 µM (PRMT7; [2]) of 103%, a remaining activity at 10 µM (NSD3; [1]) of 136% and a remaining activity at 10 µM (NSD3; [2]) of 145%. The remaining activity at 1 µM (PKA(h)) was 107%, the remaining activity at 1 µM (IR(h)) was 87% and the remaining activity at 1 µM (Mnk2(h)) was 125%.
